Five compounds from ChEMBL document CHEMBL4152338, “Design, synthesis and screening of 1, 2, 4-triazinone derivatives as potential antitumor agents with apoptosis inducing activity on MCF-7 breast cancer cell line” (Eur J Med Chem, 2018) can be followed below.

Calls of active or inactive are those of the source. No cut-off for these calls is given here.

Sequence of DNA topoisomerase 2-beta (Q02880 whole entry): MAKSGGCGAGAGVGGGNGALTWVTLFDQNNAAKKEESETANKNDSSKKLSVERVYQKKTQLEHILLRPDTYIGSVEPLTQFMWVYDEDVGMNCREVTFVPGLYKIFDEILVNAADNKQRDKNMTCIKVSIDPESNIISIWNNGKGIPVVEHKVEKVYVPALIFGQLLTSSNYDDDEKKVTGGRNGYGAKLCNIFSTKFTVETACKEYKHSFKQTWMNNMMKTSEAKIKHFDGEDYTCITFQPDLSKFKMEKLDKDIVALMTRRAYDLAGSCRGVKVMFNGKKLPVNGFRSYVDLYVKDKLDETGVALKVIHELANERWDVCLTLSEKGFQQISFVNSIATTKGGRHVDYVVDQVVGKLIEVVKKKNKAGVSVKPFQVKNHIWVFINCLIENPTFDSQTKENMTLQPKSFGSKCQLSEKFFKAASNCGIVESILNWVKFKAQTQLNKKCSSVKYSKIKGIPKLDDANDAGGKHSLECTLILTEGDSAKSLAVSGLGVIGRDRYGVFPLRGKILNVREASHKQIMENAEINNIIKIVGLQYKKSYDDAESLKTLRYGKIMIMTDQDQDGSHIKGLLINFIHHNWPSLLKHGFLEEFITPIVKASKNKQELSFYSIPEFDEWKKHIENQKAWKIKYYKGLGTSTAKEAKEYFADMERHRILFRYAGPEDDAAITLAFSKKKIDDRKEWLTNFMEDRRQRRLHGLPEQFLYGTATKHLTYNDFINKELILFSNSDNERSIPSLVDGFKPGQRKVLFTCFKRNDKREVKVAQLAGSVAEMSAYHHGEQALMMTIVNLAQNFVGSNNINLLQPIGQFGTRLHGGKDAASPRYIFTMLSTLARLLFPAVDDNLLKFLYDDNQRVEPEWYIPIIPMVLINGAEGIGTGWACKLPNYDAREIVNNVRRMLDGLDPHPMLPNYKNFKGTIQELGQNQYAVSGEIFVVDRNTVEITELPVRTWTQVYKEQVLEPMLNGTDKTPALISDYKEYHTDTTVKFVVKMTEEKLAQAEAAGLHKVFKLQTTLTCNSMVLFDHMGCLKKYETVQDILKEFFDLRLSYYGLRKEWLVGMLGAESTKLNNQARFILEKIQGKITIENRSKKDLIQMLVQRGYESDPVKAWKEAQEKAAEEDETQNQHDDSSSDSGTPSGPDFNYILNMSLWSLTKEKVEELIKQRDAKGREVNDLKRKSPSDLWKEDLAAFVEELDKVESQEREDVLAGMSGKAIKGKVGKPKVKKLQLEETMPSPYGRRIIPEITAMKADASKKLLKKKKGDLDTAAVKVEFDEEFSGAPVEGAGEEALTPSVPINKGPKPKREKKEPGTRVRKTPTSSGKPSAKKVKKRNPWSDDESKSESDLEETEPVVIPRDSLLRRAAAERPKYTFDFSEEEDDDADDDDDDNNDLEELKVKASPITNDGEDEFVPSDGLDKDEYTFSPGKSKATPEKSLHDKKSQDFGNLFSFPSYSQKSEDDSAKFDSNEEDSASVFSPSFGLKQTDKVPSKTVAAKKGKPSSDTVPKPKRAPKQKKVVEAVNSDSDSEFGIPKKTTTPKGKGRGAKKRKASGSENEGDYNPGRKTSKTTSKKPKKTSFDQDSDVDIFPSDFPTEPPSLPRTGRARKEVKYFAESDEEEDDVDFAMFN

The first assay concerns MCF7. The assay can be described thus: Down regulation of Bcl-2 level in human MCF7 cells at IC50 incubated for 24 hrs by ELISA. Format: functional, cell-based.
Details: not given
Background: An ELISA detects its analyte on a solid surface through an enzyme-linked reagent.
Turning to `COc1cc(C(=O)N/C(=C/c2cc(Br)cc(Br)c2OC(C)=O)C(=O)NNC(N)=S)cc(OC)c1OC`, the result was Active.

A further assay has as its target DNA topoisomerase 2-beta (Homo sapiens, UniProt Q02880). The assay can be described thus: Inhibition of human DNA topoisomerase 2beta after 2 hrs by ELISA.
Details: not given
What is called IC50 is the midpoint of a concentration-inhibition curve. For the compound `COc1cc(C(=O)N/C(=C/c2cc(Br)cc(Br)c2OC(C)=O)C(=O)NNC(N)=S)cc(OC)c1OC`, 0.0814 µM corresponded to half-maximal inhibition (IC50).

The subject of a further assay is MCF7. Nature of the assay: Induction of apoptosis in human MCF7 cells assessed as necrotic cells at IC50 after 24 hrs by annexin V/FITC-propidium iodide staining-based flow cytometric method (reference value: 0.53%). Type of assay: functional.
Details: not given
For `COc1cc([C@@H]2c3cc4c(cc3[C@H](O)[C@H]3COC(=O)[C@H]23)OCO4)cc(OC)c1OC` [PODOFILOX], the Activity is given as 2.06%.

Regarding `COc1cc(C(=O)N/C(=C/c2cc(Br)cc(Br)c2OC(C)=O)C(=O)NNC(N)=S)cc(OC)c1OC`, the Activity was 2.11%.

Another assay relates to MCF7. Nature of the assay: Induction of apoptosis in human MCF7 cells assessed as early apoptotic cells at IC50 after 24 hrs by annexin V/FITC-propidium iodide staining-based flow cytometric method (reference value: 0.72%). Format: functional.
Details: not given
For the compound `COc1cc([C@@H]2c3cc4c(cc3[C@H](O)[C@H]3COC(=O)[C@H]23)OCO4)cc(OC)c1OC` [PODOFILOX], the Activity was 4.19%.

For the compound `COc1cc(C(=O)N/C(=C/c2cc(Br)cc(Br)c2OC(C)=O)C(=O)NNC(N)=S)cc(OC)c1OC`, the Activity is on record as 4.66%.

In another assay the test system is MCF7. Nature of the assay: Upregulation of Bax level in human MCF7 cells at IC50 incubated for 24 hrs by ELISA relative to control.
Details: not given
Format: functional.
As for `COc1cc(C(=O)N/C(=C/c2cc(Br)cc(Br)c2OC(C)=O)C(=O)NNC(N)=S)cc(OC)c1OC`, the “fold change (FC)” value was determined as 2.2.

Another assay deals with MCF7. Nature of the assay: Upregulation of caspase3/7 level in human MCF7 cells at IC50 incubated for 24 hrs by green flow cytometric analysis relative to control. Format: functional.
Details: not given
In the case of `COc1cc(C(=O)N/C(=C/c2cc(Br)cc(Br)c2OC(C)=O)C(=O)NNC(N)=S)cc(OC)c1OC`, the “fold change (FC)” value is 24.1.

The next assay concerns MCF7. Nature of the assay: Induction of apoptosis in human MCF7 cells assessed as viable cells at IC50 after 24 hrs by annexin V/FITC-propidium iodide staining-based flow cytometric method (reference value: 96.57%).
Details: not given
Type of assay: functional. In general terms: In flow cytometry, cells or beads pass a laser one at a time.
As for `COc1cc([C@@H]2c3cc4c(cc3[C@H](O)[C@H]3COC(=O)[C@H]23)OCO4)cc(OC)c1OC` [PODOFILOX], the Activity is 84.61%.

The next assay relates to MCF7. Nature of the assay: Induction of apoptosis in human MCF7 cells assessed as late apoptotic cells at IC50 after 24 hrs by annexin V/FITC-propidium iodide staining-based flow cytometric method (reference value: 0.34%). Type of assay: functional.
Details: not given
As to `COc1cc([C@@H]2c3cc4c(cc3[C@H](O)[C@H]3COC(=O)[C@H]23)OCO4)cc(OC)c1OC` [PODOFILOX], the Activity worked out at 7.02%.

As to `COc1cc(C(=O)N/C(=C/c2cc(Br)cc(Br)c2OC(C)=O)C(=O)NNC(N)=S)cc(OC)c1OC`, the Activity was found to be 5.62%.

A further assay concerns MCF7. The assay can be described thus: Upregulation of p53 level in human MCF7 cells at IC50 incubated for 24 hrs by ELISA relative to control.
Details: not given
Format: functional.
For the compound `COc1cc(C(=O)N/C(=C/c2cc(Br)cc(Br)c2OC(C)=O)C(=O)NNC(N)=S)cc(OC)c1OC`, the “fold change (FC)” value is given as 4.2.

For a further assay, the system named is MCF7. The assay can be described thus: Inhibition of tubulin beta polymerization in human MCF7 cells at IC50 after 18 to 24 hrs by spectrophotometric method relative to control. Format: cell-based.
Details: not given
By inhibition is commonly meant the relative decrease from the control value, in per cent. Lower therefore signals little suppression. Compound `COc1cc([C@@H]2c3cc4c(cc3[C@H](O)[C@H]3COC(=O)[C@H]23)OCO4)cc(OC)c1OC` [PODOFILOX] yielded an inhibition of 96.3%.

`COc1cc(C(=O)N/C(=C/c2cc(Br)cc(Br)c2OC(C)=O)C(=O)NNC(N)=S)cc(OC)c1OC` returned an inhibition of 62.3%.

Another assay relates to MCF7. The assay can be described thus: Antiproliferative activity against human MCF7 cells after 48 hrs by MTT assay. Type of assay: functional, cell-based. Conditions: MCF7, 48 h. Background: Tetrazolium assays rely on reduction of a dye to a coloured formazan, in cell work by metabolically active cells.
Consider `COc1ccc(C2=N/C(=C\c3cc(Br)cc(Br)c3OC(C)=O)C(=O)NN2C(N)=S)cc1OC`, for which the midpoint of inhibition, the IC50, lay at 13.4 µM.

Take `COc1ccc(C2=N/C(=C\c3cc(Br)cc(Br)c3OC(C)=O)C(=O)NN2c2ncc(-c3ccccc3)s2)cc1OC`: the half-maximal inhibitory concentration (IC50) is 4.33 µM.

`CC(=O)Oc1c(Br)cc(Br)cc1/C=C(/NC(=O)c1ccccc1)C(=O)NNC(N)=S` gave an IC50 of 16.8 µM.

Compound `COc1cc([C@@H]2c3cc4c(cc3[C@H](O)[C@H]3COC(=O)[C@H]23)OCO4)cc(OC)c1OC` [PODOFILOX] gave a 50% inhibitory concentration (IC50) of 2.21 µM.

Compound `COc1cc(C(=O)N/C(=C/c2cc(Br)cc(Br)c2OC(C)=O)C(=O)NNC(N)=S)cc(OC)c1OC` registered a 50% inhibitory concentration (IC50) of 2.85 µM.

Test system in a further assay: not listed separately
Nature of the assay: Antiproliferative activity against human Hs 371.T cells after 48 hrs by MTT assay.
Details: not given
Format: cell-based.
`COc1cc([C@@H]2c3cc4c(cc3[C@H](O)[C@H]3COC(=O)[C@H]23)OCO4)cc(OC)c1OC` [PODOFILOX] came in with a 50% inhibitory concentration (IC50) of 22.4 µM. This lies in the double-digit micromolar range.

Another assay deals with MCF7. The assay can be described thus: Upregulation of caspase3/7 level in human MCF7 cells at IC50 assessed as caspase 3/7 green fluorescence incubated for 24 hrs by green flow cytometric analysis (reference value: 0.49%).
Details: not given
Format: functional.
With `COc1cc([C@@H]2c3cc4c(cc3[C@H](O)[C@H]3COC(=O)[C@H]23)OCO4)cc(OC)c1OC` [PODOFILOX], the Activity is listed as 7.58%.

For `COc1cc(C(=O)N/C(=C/c2cc(Br)cc(Br)c2OC(C)=O)C(=O)NNC(N)=S)cc(OC)c1OC`, the Activity was determined as 6.91%.

The next assay relates to MCF7. Nature of the assay: Increase in Bax/Bcl-2 ratio in human MCF7 cells at IC50 incubated for 24 hrs by ELISA. Format: functional, cell-based.
Details: not given
`COc1cc(C(=O)N/C(=C/c2cc(Br)cc(Br)c2OC(C)=O)C(=O)NNC(N)=S)cc(OC)c1OC`: the result was Active.
